The results in this text go back to ChEMBL document CHEMBL1201862, “PubChem BioAssay data set” (2004).

Broadly, the GI50 is the concentration at which growth is held to half of that of the control.

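These data come from cells grown in 96-well plates and exposed to compound for 48 hours at five concentrations. Abbreviation: GI50, concentration required for 50% inhibition of growth.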 Calls of active or inactive are those of the source. No stated cut-off is given here; in the data, active = GI50 up to about 1.1 µM and inactive = higher. Where only a bound is given, the exact number is not on record here.

Among the test systems are SK-MEL-5; SF-539; MDA-N; NCI-H522; K562; UO-31; UACC-257; OVCAR-5; MDA-MB-231; IGROV-1; A549; 786-0; HCC 2998; SNB-75; MOLT-4; A498; U-251; SW-620; SK-OV-3; HCT-15.
Assay in all cases: DTP human tumour cell line panel, 48 h

With `COc1cccc2cc(C(C)=O)c(=O)oc12`, the GI50 with SK-MEL-5, in the assay on SF-539, in the assay on MDA-N, in the assay on NCI-H522, in the assay on K562 and with UO-31 was > 100 µM (inactive) in each case. The GI50 with UACC-257, in the assay with OVCAR-5, in the assay with MDA-MB-231, in the assay on IGROV-1, with A549 and with 786-0 was > 100 µM (inactive) each time. The GI50 in the assay with HCC 2998, with SNB-75, in the assay with MOLT-4, in the assay on A498, with U-251 and in the assay on SW-620 was > 100 µM (inactive) throughout.

Turning to `Cc1ccc2c(c1)S(=O)(=O)c1ccc3ccccc3c1N2`, the GI50 in the assay with SK-MEL-5, in the assay with SF-539, in the assay with SK-OV-3, in the assay with MDA-N, with NCI-H522 and with K562 was > 100 µM (inactive) in each case. The GI50 in the assay on UO-31 was > 100 µM (inactive); with HCT-15, > 100 µM; in the assay with UACC-257, > 100 µM (inactive); in the assay with OVCAR-5, > 100 µM (inactive); in the assay with MDA-MB-231, > 100 µM (inactive); in the assay with IGROV-1, > 100 µM (inactive). The GI50 in the assay with A549, in the assay on 786-0, in the assay on HCC 2998, with MOLT-4, in the assay on A498 and in the assay on U-251 was > 100 µM (inactive) throughout. Besides, the GI50 with SW-620 was > 100 µM (inactive).

For the compound `CCOc1ccc(-n2c(=O)n3c(Nc4ccc(Cl)cc4)nc4c(c(=O)n(C)c(=O)n4C)n3c2=O)cc1`, the GI50 in the assay with SK-MEL-5 was 19 µM (inactive); with SF-539 it was 41 µM (inactive); in the assay on MDA-N, 32.7 µM (inactive); with NCI-H522, 18.1 µM (inactive); in the assay with K562 it was 29.6 µM (inactive); with UO-31, > 100 µM (inactive). The GI50 in the assay with HCT-15 was 20.7 µM; in the assay with UACC-257, 23.5 µM (inactive); with OVCAR-5, 37.6 µM (inactive); in the assay on MDA-MB-231 it was 15.5 µM (inactive); with IGROV-1, 37.4 µM (inactive); in the assay on A549, 75.5 µM (inactive). Also, the GI50 in the assay on 786-0 was 36.6 µM (inactive); with HCC 2998, 19.5 µM (inactive); in the assay with SNB-75, 13.7 µM (inactive); in the assay on MOLT-4, 23.9 µM (inactive); with A498, 22.9 µM (inactive); with U-251, 32.7 µM (inactive). Besides, the GI50 in the assay with SW-620 was 33.9 µM (inactive).

`COc1cc(O)c2c(c1)OCC1(Cc3cc(OC)c(OC)cc31)C2=O` (stereo not given): the GI50 with SK-MEL-5 was 2.37 µM (inactive); in the assay on SF-539, > 100 µM (inactive); in the assay with SK-OV-3, > 100 µM (inactive); in the assay on MDA-N, 49.9 µM (inactive); in the assay on NCI-H522, 84.9 µM (inactive); with K562, 36.9 µM (inactive). Further, the GI50 is > 100 µM (inactive) in the assay on UO-31; > 100 µM in the assay with HCT-15; 43.1 µM (inactive) in the assay with UACC-257; > 100 µM (inactive) in the assay with OVCAR-5; 83 µM (inactive) in the assay on MDA-MB-231; > 100 µM (inactive) with IGROV-1. For the same compound, the GI50 in the assay on A549 is 19.5 µM (inactive); in the assay with 786-0 it was > 100 µM (inactive); in the assay with SNB-75, 78.3 µM (inactive); with MOLT-4 it was 47.3 µM (inactive); with A498 it was > 100 µM (inactive); in the assay with U-251, > 100 µM (inactive). The GI50 in the assay on SW-620 was > 100 µM (inactive).

`CS(=O)(=O)Nc1ccc(NCc2c[nH]c3ccc4ncccc4c23)cc1`: the GI50 was 14.9 µM (inactive) in the assay with SK-MEL-5; 24.8 µM (inactive) in the assay with SF-539; 50.8 µM (inactive) in the assay with SK-OV-3; 18 µM (inactive) in the assay with MDA-N; 18.5 µM (inactive) in the assay on NCI-H522; 18.7 µM (inactive) with K562. The GI50 in the assay with UO-31 is 33.3 µM (inactive); in the assay on HCT-15, 27.2 µM; in the assay with UACC-257 it was 23.1 µM (inactive); with OVCAR-5, 40.3 µM (inactive); with MDA-MB-231, 27.4 µM (inactive); in the assay on IGROV-1 it was 48.6 µM (inactive). Further, the GI50 in the assay with A549 was 43.4 µM (inactive); with 786-0 it was 29.9 µM (inactive); in the assay with SNB-75 it was 30.3 µM (inactive); in the assay on MOLT-4, 13.6 µM (inactive); with A498 it was 20.3 µM (inactive); with U-251, 23.6 µM (inactive). In the assay on SW-620, the GI50 was 32.3 µM (inactive).

For `O=c1[nH]nc(Nc2ccc(Cl)cc2)c2nnn(C3CCCCC3)c12`, the GI50 with SK-MEL-5 was > 100 µM (inactive); in the assay on SF-539 it was > 100 µM (inactive); with MDA-N, > 100 µM (inactive); in the assay on NCI-H522, 23.9 µM (inactive); in the assay on K562, 26.5 µM (inactive); in the assay with UO-31, > 100 µM (inactive). In addition, the 50% growth inhibitory concentration (GI50) in the assay with HCT-15 was 72.8 µM; in the assay with UACC-257, > 100 µM (inactive); in the assay on OVCAR-5, > 100 µM (inactive); with MDA-MB-231, 13.9 µM (inactive); with IGROV-1, > 100 µM (inactive); in the assay with A549, > 100 µM (inactive). Moreover, the GI50 was 15.1 µM (inactive) in the assay with 786-0; > 100 µM (inactive) with HCC 2998; 26.3 µM (inactive) with SNB-75; 37.4 µM (inactive) in the assay on A498; 25.2 µM (inactive) in the assay on U-251; 62.4 µM (inactive) in the assay on SW-620.

Turning to `COc1ccc(CCN2CCN(CCc3ccc(OC)cc3)CC2)cc1`, the GI50 with SK-MEL-5, with SF-539, in the assay with SK-OV-3, in the assay with MDA-N, with NCI-H522 and in the assay on K562 was > 100 µM (inactive) throughout. For the same compound, the GI50 with UO-31 is > 100 µM (inactive); in the assay on HCT-15, > 100 µM; with UACC-257 it was > 100 µM (inactive); in the assay with OVCAR-5 it was > 100 µM (inactive); in the assay on MDA-MB-231, > 100 µM (inactive); in the assay on IGROV-1, > 100 µM (inactive). Further, the GI50 in the assay with A549, in the assay with 786-0, in the assay on HCC 2998, with MOLT-4, in the assay with A498 and in the assay with U-251 was > 100 µM (inactive) in each case. In the assay on SW-620, the GI50 was > 100 µM (inactive).

Take `NC(=O)CC(N)C(N)=O` (stereo not given): the GI50 in the assay with SK-MEL-5, in the assay with SF-539, with SK-OV-3, in the assay on MDA-N, in the assay with NCI-H522 and in the assay with K562 was > 100 µM (inactive) each time. Further, the 50% growth inhibitory concentration (GI50) was > 100 µM with HCT-15; > 100 µM (inactive) in the assay on UACC-257; > 100 µM (inactive) in the assay with MDA-MB-231; > 100 µM (inactive) with IGROV-1; > 100 µM (inactive) with A549; > 100 µM (inactive) with 786-0. Further, the GI50 in the assay with SNB-75, in the assay with MOLT-4, in the assay with A498, in the assay on U-251 and in the assay on SW-620 was > 100 µM (inactive) in each case.

In the case of `OCCN1CN(c2nc(N3CN(CCO)C3)nc(N3CN(CCO)C3)n2)C1`, the GI50 in the assay on SK-MEL-5 was 19.2 µM (inactive); in the assay on SF-539, 18.2 µM (inactive); with MDA-N, 18.1 µM (inactive); with NCI-H522, 13.4 µM (inactive); in the assay on K562 it was 25.4 µM (inactive); in the assay on UO-31 it was 20 µM (inactive). The GI50 in the assay on HCT-15 is 22.3 µM; in the assay with UACC-257 it was 18.9 µM (inactive); in the assay with OVCAR-5, 23.1 µM (inactive); with MDA-MB-231 it was 19.8 µM (inactive); with IGROV-1, 30.1 µM (inactive); in the assay on A549, 83.4 µM (inactive). Further, the GI50 was 23.8 µM (inactive) in the assay on 786-0; 19.5 µM (inactive) with HCC 2998; 23.1 µM (inactive) in the assay with SNB-75; 33.7 µM (inactive) in the assay on MOLT-4; 31.5 µM (inactive) in the assay with A498; 22.6 µM (inactive) in the assay on U-251. For the same compound, the GI50 in the assay on SW-620 is 30 µM (inactive).

For the compound `COc1cc2c(cc1OC)C(CCN)=NCC2`, the GI50 was 20 µM (inactive) in the assay on SK-MEL-5; 6.75 µM (inactive) in the assay on SF-539; > 76.7 µM (inactive) with SK-OV-3; 15.8 µM (inactive) with MDA-N; 3.82 µM (inactive) with NCI-H522; 11.2 µM (inactive) with K562. For the same compound, the GI50 with UO-31 was 1.77 µM (inactive); in the assay on HCT-15, 19.6 µM; in the assay on UACC-257 it was 17.9 µM (inactive); in the assay with OVCAR-5 it was > 42.6 µM (inactive); with MDA-MB-231 it was 16.6 µM (inactive); in the assay with IGROV-1, 22.6 µM (inactive). The GI50 in the assay on A549 is 31.6 µM (inactive); with 786-0, 5.08 µM (inactive); in the assay on SNB-75 it was 18.5 µM (inactive); in the assay on MOLT-4 it was 17.1 µM (inactive); in the assay on A498, 26.9 µM (inactive); in the assay on U-251 it was 16.4 µM (inactive). Further, the GI50 in the assay on SW-620 is 5 µM (inactive).

`N#C[BH2-][n+]1ccc(C(=O)NNCc2ccc(F)cc2)cc1`: the GI50 with SK-MEL-5 was > 100 µM (inactive); with SF-539, > 100 µM (inactive); in the assay on MDA-N it was > 100 µM (inactive); in the assay on NCI-H522, > 100 µM (inactive); in the assay with K562, > 100 µM (inactive); in the assay with UO-31 it was 59.7 µM (inactive). The GI50 was > 100 µM in the assay with HCT-15; > 100 µM (inactive) in the assay on UACC-257; > 100 µM (inactive) in the assay on OVCAR-5; > 100 µM (inactive) in the assay with MDA-MB-231; > 100 µM (inactive) in the assay on IGROV-1; > 100 µM (inactive) in the assay with A549. The GI50 in the assay with 786-0, with HCC 2998, with SNB-75, in the assay with MOLT-4, in the assay with A498 and in the assay with U-251 was > 100 µM (inactive) in each case. In addition, in the assay with SW-620, the GI50 was > 100 µM (inactive).
